*: point of attachment. NHNH2 = NN*
How the values were obtained:
Format in all cases: cell-based
[1] = test system: Hela cells; assay: EGFP mRNA delivery, robotic library screening, HeLa
Experimental: Cells were seeded in a 96 well plate the day before the experiment at a concentration of 50,000 cell/mL (100 μL/w) in DMEM+10% FBS+1% Gln-Abt. For robotic library screening, the delivery of EGFP-mRNA (from TriLink, fully substituted with 5-methoxyuridine, capped and polyadenylated; TriLink, CleanCap® EGFP mRNA (5moU), ref. L-7201) in six different cell lines was performed. Amphiphilic molecule stock solutions were prepared in DMSO as described above and diluted in DMEM to afford a range of concentrations. The solutions of EGFP-mRNA/amphiphilic molecule complexes were freshly prepared prior to the transfection experiments. 35 μL of the corresponding amphiphile were added to 10 μL of a solution of EGFP-mRNA at 10 ng/μL in DMEM. The mixture was shaken for 30 min at room temperature before the addition to the cells. The cell medium was aspirated, and cells were washed with PBS twice. Cells were covered with 39 μL of DMEM and 11 μL of the complex's solution were added to the cells and incubated for 4 h (final concentration of peptide=2.5, 5 and 10 μM; final concentration of EGFP-mRNA=25 ng/well). After the incubation, the medium was replaced by 100 μL of fresh DMEM supplemented with 10% FBS. The total EGFP fluorescence was quantified after 72 h in a well plate reader. Amphiphile transfection efficiency was compared and normalized to Lipofectamine® MessengerMax efficiency (value of 1 in Tables 1-5 and 7; double underlined numbers). All experiments were done in triplicate.
(§1) Tables 1-7: RLuc (pDNA) or EGFP (mRNA) expression levels were normalized to Lipofectamine reagents (value=1) and expressed as fold-times signal increase. In the case of siRNA, the siRNA treated cells fluorescence was compared with siMOCK control fluorescence, while Cas9-RNP mediated knockout was measured against the fluorescence of untreated cells. In both siRNA and Cas9-RNP, values are expressed as % fluorescence reduction. Amphiphile concentration was 5 μM in all cases. All experiments were performed in triplicate.
Tables 14-19 show the mean (triplicates) fluorescence intensity measured after the transfection of EGFP mRNA by different amphiphiles at different concentrations in a variety of cell lines. Background fluorescence values, accounted by untreated control cells, were subtracted for processing.

[2] = test system: HepG2 cells expressing EGFP; assay: EGFP-targeting siRNA delivery (GFP silencing vs siMOCK), HepG2
Experimental: (§2) To generate an EGFP expressing HeLa cell line, HeLa cells were transfected with EGFP pDNA (pEGFP-C1, Clontech) and stable transfectants were selected with 400 μg/mL of G-418 (Millipore). Green clones were selected by epifluorescence microscopy and tested for EGFP expression stability through several passages. […] All other EGFP-expressing cell lines were obtained in a similar way from parent non-EGFP-expressing cell lines.
Cells expressing EGFP were seeded in a 96 well plate the day before the experiment at a concentration of 50,000 cell/mL (100 μL/w) in DMEM+10% FBS+1% Gln-Abt. For robotic library screening, the delivery of an EGFP-targeting siRNA (EGFP: enhanced green fluorescent protein, Ambion® Silencer® GFP Positive Control siRNA (siGFP) (AM4626)) in six different cell lines expressing EGFP was performed. […] The mixture was shaken for 30 min at room temperature (rt) before the addition to the cells. The cell medium was aspirated, and cells were washed twice with PBS. Finally, 50 μL of the solution of siRNA/amphiphile complexes were added to the cells and incubated for 4 h. After transfection, the medium was replaced by 100 μL of fresh DMEM supplemented with 10% FBS. The fluorescence knockdown was quantified after 72 h in a plate reader, by comparison with cells transfected with a non-targeting siRNA control (siMOCK, Silencer™ Negative Control No. 1 siRNA (siMOCK) (AM4611)). EGFP knockdown was compared with Lipofectamine® RNAiMAX silencing efficiency (30-60% depending on cell line, defined with a numeric value in the below tables). All experiments were done in triplicate.
as §1
Tables 20-25 show the mean (triplicates) percentage of GFP-silencing, accounted by fluorescence intensity decrease relative to a non-targeting siRNA (siMOCK) control, measured after the transfection of siRNA by different amphiphiles at different concentrations in a variety of cell lines. Background values, accounted by untreated control cells, were subtracted for processing.

[3] = test system: Hek293 cells expressing EGFP; assay: Cas9-RNP delivery against EGFP (gene editing, plate reader), Hek293
Experimental: as §2
Cells expressing EGFP were seeded in a 96 well plate the day before the experiment at a concentration of 50,000 cell/mL (100 μL/w) in DMEM+10% FBS+1% Gln-Abt. For robotic library screening, the delivery of Cas9-RNP against EGFP (RNP designed to knock-out the gene encoding for the enhanced green fluorescent protein (EGFP)) was performed. For RNP assembly, 9.2 μL of crRNA and 9.2 μL of tracrRNA were mixed in 211.6 μL of Nuclease-Free Duplex Buffer (IDT), incubated for 5 min at 95° C. and slowly cooled at rt (see I. Lostalé-Seijo, et al. Peptide/Cas9 nanostructures for ribonucleoprotein cell membrane transport and gene edition, Chem. Sci., 2017). Cas9 protein was dissolved in DMEM at a final concentration of 4 μM and equal volumes of the RNA complex and Cas9 were mixed and incubated for 5 min at rt. 75 μL of the corresponding amphiphile concentrations were added to 5 μL of RNP at 2 μM. The mixture was shaken for 30 min at room temperature before the addition to the cells. The cell medium was aspirated, and cells were washed twice with PBS. Cells were covered with 30 μL of DMEM and 20 μL of the RNP/amphiphile complexes were added to the cells (final peptide concentrations=2.5, 5 and 10 μM; final Cas9-RNP concentration=50 nM) and incubated for 4 h. After the incubation, the medium was replaced by 100 μL of fresh DMEM supplemented with 10% FBS. The total EGFP fluorescence was quantified after 72 h in a plate reader (FIG. 2, Table 1 (right) and Table 6). All experiments were done in triplicate. […]
Tables 26-31 show the mean (triplicates) percentage of gene editing, accounted by GFP fluorescence intensity decrease (% of reduction), measured after the transfection of Cas9-RNP by different amphiphiles at different concentrations in a variety of cell lines. Background values, accounted by untreated control cells, were subtracted for processing.

Row | Substance | mean fluorescence intensity (EGFP mRNA) ([1]; HeLa, Petroselinyl, 10 μM) | mean fluorescence intensity (EGFP mRNA) ([1]; Hela, Petroselinyl, 5 μM) | percentage of GFP-silencing relative to siMOCK ([2]; Dodecanal, 15 μM) | percentage of GFP-silencing relative to siMOCK ([2]; Myristoleyl, 10 μM) | percentage of GFP-silencing relative to siMOCK ([2]; Palmitoleyl, 10 μM) | percentage of GFP-silencing relative to siMOCK ([2]; Palmitoleyl, 15 μM) | percentage of GFP-silencing relative to siMOCK ([2]; Petroselinyl, 10 μM) | percentage of GFP-silencing relative to siMOCK ([2]; Petroselinyl, 15 μM) | percentage of gene editing, GFP fluorescence intensity decrease (% of reduction) ([3]; Oleyl, 10 μM) | percentage of gene editing, GFP fluorescence intensity decrease (% of reduction) ([3]; Palmitoleyl, 5 μM) | percentage of gene editing, GFP fluorescence intensity decrease (% of reduction) ([3]; Palmitoleyl, 10 μM) | percentage of gene editing, GFP fluorescence intensity decrease (% of reduction) ([3]; Palmitoleyl, 15 μM) | percentage of gene editing, GFP fluorescence intensity decrease (% of reduction) ([3]; Petroselinyl, 5 μM) | percentage of gene editing, GFP fluorescence intensity decrease (% of reduction) ([3]; Petroselinyl, 10 μM) | mean fluorescence intensity (EGFP mRNA) ([1]; HeLa, Dodecanal, 5 μM) | mean fluorescence intensity (EGFP mRNA) ([1]; HeLa, Myristoleyl, 2.5 μM) | mean fluorescence intensity (EGFP mRNA) ([1]; HeLa, Oleyl, 5 μM) | percentage of GFP-silencing relative to siMOCK ([2]; Dodecanal, 10 μM) | percentage of GFP-silencing relative to siMOCK ([2]; Palmitoleyl, 5 μM) | percentage of GFP-silencing relative to siMOCK ([2]; Petroselinyl, 5 μM) | further results
1 | Ac-RRHK*RLK*RRLK*RL-NH2 (Ac-RRHK(NHNH2)RLK(NHNH2)RRLK(NHNH2)RL-NH2; not fully specified; printed as Ac-RRHK*RLK*RRLK*RL-NH2; also: K*4,K*7,K*11: native or modified lysine (ε-amide to a linker)) [13(Leu-His)] | 45 | 112 | 27% | −3% | 12% | 25% | 25% | 6% | −4% | −8% | −33% | −39% | 16% | 7% | – | – | – | – | – | – | percentage of gene editing, GFP fluorescence intensity decrease (% of reduction) ([3]; Myristoleyl, 10 μM): −16%; percentage of gene editing, GFP fluorescence intensity decrease (% of reduction) ([3]; Petroselinyl, 15 μM): −32%
2 | Ac-RRLK*RLK*RRLK*RL-NH2 [Peptide 13.3] | 489 | 497 | 33% | 20% | 46% | 10% | 41% | 8% | – | −7% | – | – | – | – | 445 | 535 | 427 | 31% | 19% | 9% | mean fluorescence intensity (EGFP mRNA) ([1]; HeLa, Petroselinyl, 2.5 μM): 633; mean fluorescence intensity (EGFP mRNA) ([1]; Hela, Dodecanal, 10 μM): 393; mean fluorescence intensity (EGFP mRNA) ([1]; Hela, Myristoleyl, 5 μM): 580; mean fluorescence intensity (EGFP mRNA) ([1]; Hela, Myristoleyl, 10 μM): 424; percentage of GFP-silencing relative to siMOCK ([2]; Myristoleyl, 5 μM): 13%; percentage of gene editing, GFP fluorescence intensity decrease (% of reduction) ([3]; Dodecanal, 5 μM): 18%; percentage of gene editing, GFP fluorescence intensity decrease (% of reduction) ([3]; Dodecanal, 10 μM): −18%; percentage of gene editing, GFP fluorescence intensity decrease (% of reduction) ([3]; Myristoleyl, 5 μM): −12%; percentage of gene editing, GFP fluorescence intensity decrease (% of reduction) ([3]; Myristoleyl, 15 μM): −48%
3 | Ac-RRLK*RLLRRLK*RL-NH2 (Ac-RRLK(NHNH2)RLLRRLK(NHNH2)RL-NH2; not fully specified; printed as Ac-RRLK*RLLRRLK*RL-NH2; also: K*4,K*11: native or modified lysine (ε-amide to a linker)) [Peptide 13.2] | – | – | −5% | – | 4% | 7% | 2% | 0% | −10% | – | – | – | – | – | – | – | 273 | 13% | 16% | −11% | percentage of gene editing, GFP fluorescence intensity decrease (% of reduction) ([3]; Dodecanal, 5 μM): −23%; percentage of gene editing, GFP fluorescence intensity decrease (% of reduction) ([3]; Dodecanal, 10 μM): −26%; percentage of gene editing, GFP fluorescence intensity decrease (% of reduction) ([3]; Oleyl, 15 μM): −13%
4 | Ac-RRLK*RLLRRLK*RLK*RRL-NH2 (Ac-RRLK(NHNH2)RLLRRLK(NHNH2)RLK(NHNH2)RRL-NH2; not fully specified; printed as Ac-RRLK*RLLRRLK*RLK*RRL-NH2; also: K*4,K*11,K*14: native or modified lysine (ε-amide to a linker)) [Peptide 17.3] | −16 | 25 | −4% | – | – | −2% | 5% | – | – | −19% | −32% | −34% | 2% | −37% | 43 | 64 | – | 18% | 4% | −11% | mean fluorescence intensity (EGFP mRNA) ([1]; Hela, Dodecanal, 10 μM): 52; mean fluorescence intensity (EGFP mRNA) ([1]; Hela, Myristoleyl, 5 μM): 6; mean fluorescence intensity (EGFP mRNA) ([1]; Hela, Myristoleyl, 10 μM): 76; percentage of GFP-silencing relative to siMOCK ([2]; Dodecanal, 5 μM): 13%; percentage of GFP-silencing relative to siMOCK ([2]; Myristoleyl, 15 μM): −18%; percentage of GFP-silencing relative to siMOCK ([2]; Oleyl, 10 μM): 8%

Reference: patent US20250304623A1, “PEPTIDES FOR INTRACELLULAR DELIVERY” (UNIVERSIDADE DE SANTIAGO DE COMPOSTELA, priority 2022, published 2025)
